Laboratory results as given in patent US4275248A, “Preparation of 2,4,6-triisopropylphenol” (UOP Inc., priority 1980, dated 1981).
Entries after “also recorded” stand apart in the source; their conditions may differ. Read-outs that look alike come from different tables or passages of the source.

Tests used:
[1] = Oxidative stability of gasoline / petroleum distillates, overall antioxidant effectiveness in words; settings: for effectiveness in increasing the induction period: versus commercial product commonly used to stabilize gasoline
From the text: Among the products which may be prepared by this invention, the di- and tri-isopropylated hydroxy substituted aromatic compounds are effective antioxidants for stabilizing various petroleum distillates. Examples of the latter include home heating fuel, gasoline, diesel fuel, aviaton fuel, kerosene, and lubricating oils. […] One way of determining the stabilizing effect of additives is to compare the induction period to oxidation of a composton differing only in the nature of the additive present. […] The di- and tri-isopropylated phenols of the present invention may be used as antioxidants at concentrations from about 5 parts per million by weight to about 5% by weight, and preferably from about 5 to about 500 parts per million by weight when used in fuel oils.
(§1) The effectiveness of materials as antioxidants in liquid petroleum products was determined by measurement of the induction period prior to oxidation, ANSI/ASTM method D525-74, and by measurement of gum formation under accelerated storage conditions, ANSI/ASTM method D873-74. The liquid petroleum product was either a base washed riser-cracked gasoline from British Petroleum Co., Canada (sample A) or a base washed, blended full range gasoline from Union Oil (sample B). As a comparison, there is included an antioxidant of wide commercial utility which consists of 2,6-di-t-butylphenol (75%), 2,4,6-tri-t-butylphenol (15%) and 2,t-butylphenol (10%) and which we designate by the symbol E733.

[2] = Gum formation under accelerated storage conditions, ANSI/ASTM method D873-74, gasoline sample A
Protocol: as §1

[3] = Induction period prior to oxidation, ANSI/ASTM method D525-74, gasoline sample A
Protocol: as §1

[4] = Induction period prior to oxidation, ANSI/ASTM method D525-74, gasoline sample B; settings: runs 4-7 (no additive: 80-105)
Protocol: as §1

[5] = Gum formation under accelerated storage conditions, ANSI/ASTM method D873-74, gasoline sample B; settings: runs 4-7 (no additive: 320)
Protocol: as §1

[6] = 35 ppm, runs 4-7 (no additive: 180)
[7] = 50 ppm, runs 4-7 (no additive: 180)
[8] = 20 ppm, runs 4-7 (no additive: 125-130)
[9] = 35 ppm, runs 4-7 (no additive: 125-130)
[10] = 50 ppm, runs 4-7 (no additive: 125-130)

Row | Structure (SMILES) | antioxidant effectiveness for stabilizing petroleum distillates ([1]; general statement in words) | effectiveness in increasing the induction period [1] | imparting oxidative stability to the gasolines tested ([1]; versus commercial standard, measured by increase in induction period and decrease in gum formation) | Accelerated Gum ([2]; 20 ppm, runs 1-3 (no additive: 45)) [mg/100 ml] | Accelerated Gum ([2]; 40 ppm, runs 1-3 (no additive: 45)) [mg/100 ml] | Induction Period ([3]; 20 ppm, runs 1-3 (no additive: 170)) [min] | Induction Period ([3]; 40 ppm, runs 1-3 (no additive: 170)) [min] | Accelerated Gum [2, 6] | Accelerated Gum [2, 7] | Induction Period ([4]; 20 ppm) [min] | Induction Period ([4]; 35 ppm) [min] | Induction Period ([4]; 50 ppm) [min] | Accelerated Gum ([5]; 35 ppm) [mg/100 ml] | Accelerated Gum ([5]; 50 ppm) [mg/100 ml] | Induction Period [3, 8] [min] | Induction Period [3, 9] [min] | Induction Period [3, 10] [min] | antioxidant effectiveness for stabilizing petroleum distillates [1] | imparting oxidative stability to the gasolines tested [1] | Accelerated Gum ([5]; 20 ppm) [mg/100 ml]
1 | Cc1cc(C(C)C)c(O)c(C(C)C)c1 [2,6-diisopropyl-4-methylphenol] | particularly effective; also recorded: particularly desirable antioxidant properties | substantially more effective in increasing the induction period | substantially more effective than an accepted commercial standard | 5 | 3 | 340 | 475 | – | – | – | – | – | – | – | – | – | – | – | – | –
2 | CC(C)c1cccc(C(C)C)c1O [2,6-diisopropylphenol] | – | – | – | – | – | – | – | 35 mg/100 ml | 9 mg/100 ml | 195 | 250 | 310 | 4.5 | 3.5 | 200 | 240 | 305 | – | – | –
3 | CC(C)c1cc(C(C)C)c(O)c(C(C)C)c1 [2,4,6-triisopropylphenol] | – | substantially more effective in increasing the induction period | – | – | – | – | – | 7-8 mg/100 ml | 7-8 mg/100 ml | 270 | 350 | 420 | 2.5 | 2.5 | 245 | 310 | 375 | particularly effective | substantially more effective than an accepted commercial standard | 13
